The results in this text go back to patent US20110015393A1, “PHTHALAZINONE COMPOUND” (ASTRAZENECA AB, priority 2009, published 2011).

Each structure is given as a SMILES string.

In data set [1] the target is T1, Mammalian PARP, isolated from Hela cell nuclear extract (Homo sapiens, UniProt P09874).
T1 construct: isolated from Hela cell nuclear extract; endogenous in cells; host or cells: HeLa cell nuclear extract
The data set is described as follows: PARP inhibition assay (FlashPlate, 3H-NAD incorporation). The format is biochemical. The note with it: PARP enzyme activity; NAD 5 μM, 30° C., 45 minutes. As to the method: In order to assess the inhibitory action of compound 1, the following assay was used to determine the IC50 value.
Mammalian PARP, isolated from Hela cell nuclear extract, was incubated with Z-buffer (25 mM Hepes (Sigma); 12.5 mM MgCl2 (Sigma); 50 mM KCl (Sigma); 1 mM DTT (Sigma); 10% Glycerol (Sigma) 0.001% NP-40 (Sigma); pH 7.4) in 96 well FlashPlates (TRADE MARK) (NEN, UK) and varying concentrations of said inhibitors added. The compound was diluted in DMSO and gave final assay concentrations of between 10 and 0.01 μM, with the DMSO being at a final concentration of 1% per well. The total assay volume per well was 40 μl.
After 10 minutes incubation at 30° C. the reactions were initiated by the addition of a 10 μl reaction mixture, containing NAD (5 μM), ^3H-NAD and 30 mer double stranded DNA-oligos. Designated positive and negative reaction wells were done in combination with compound wells (unknowns) in order to calculate % enzyme activities. The plates were then shaken for 2 minutes and incubated at 30° C. for 45 minutes. […]
The plates were transferred to a TopCount NXT (TRADE MARK) (Packard, UK) for scintillation counting. Values recorded are counts per minute (cpm) following a 30 second counting of each well.
The % enzyme activity for the compound is then calculated using the following equation: […]

The next data set has as its system HeLa cells. The data set is described as follows: Potentiation Factor (PF50): MMS growth inhibition, SRB assay. The format is cell-based. The note with it: MMS 0 to 10 μg/ml, ratio of IC50 of control cell growth to IC50 of cell growth + PARP inhibitor. As to the method:
The Potentiation Factor (PF50) for compounds is calculated as a ratio of the IC50 of control cell growth divided by the IC50 of cell growth+PARP inhibitor. Growth inhibition curves for both control and compound treated cells are in the presence of the alkylating agent methyl methanesulfonate (MMS). The test compound was used at a fixed concentration of 30 nM and 200 nM. The concentrations of MMS were over a range from 0 to 10 μg/ml. Cell growth was assessed using the sulforhodamine B (SRB) assay (Skehan, P., et al., (1990) New colorimetric cytotoxicity assay for anticancer-drug screening. J. Natl. Cancer Inst. 82, 1107-1112.). 2,000 HeLa cells were seeded into each well of a flat-bottomed 96-well microtiter plate in a volume of 100 μl and incubated for 6 hours at 37° C. Cells were either replaced with media alone or with media containing PARP inhibitor at a final concentration of 30 nM or 200 nM. Cells were allowed to grow for a further 1 hour before the addition of MMS at a range of concentrations (typically 0, 1, 2, 3, 5, 7 and 10 μg/ml) to either untreated cells or PARP inhibitor treated cells. Cells treated with PARP inhibitor alone were used to assess the growth inhibition by the PARP inhibitor. […] Plates were gently shaken and left at room temperature for 30 minutes before measuring the optical density at 564 nm on a Microquant microtiter plate reader.

The next data set addresses T2, P-glycoprotein (Homo sapiens, UniProt P08183).
T2 construct: Hela cell line known as KBA1, which expressed high P-glycoprotein; endogenous in cells; host or cells: KBA1 cells (HeLa-derived, high P-gp); matched non-expressing line KB31
Description: P-gp substrate activity: Dose Modification Ratio in KBA1 cells with/without Verapamil, SRB assay. The format is in vitro ADME. The note with it: IC50 in absence of Verapamil divided by IC50 in presence of 20 μM Verapamil, 5 days, DMR <1.5 = not a P-gp substrate. As to the method:
Cells from the Hela cell line known as KBA1, which expressed high P-glycoprotein (ABC1a and ABC1b transporter glycoproteins also known as MDR1a and MDR1b) and the matched non-P-glycoprotein expressing line known as KB31, were seeded onto 96 well tissue culture plates with 80 μl per well of 1.00×10^4 cells/ml=800 cells/well [DMEM, 10% FBS, PSG] and left to adhere for 4 hours. After the incubation period 10 μl per well of 200 μM Verapamil (giving a final conc. of 20 μM) a known inhibitor of P-gp or vehicle media were added to various wells of the cell plates. The 96 well plates were left in the incubator for 1 hour prior to 10 μl of test compound (or the known substrate Etoposide as a reference control) or 10 μl PBS/1% DMSO vehicle (control wells) being added into either Verapamil containing or media control wells. […]
The cell plates were then incubated for 5 days prior to cell growth being assessed using the Sulforhodamine B (SRB) assay as described previously. The P-gp substrate activity for each compound was calculated using the cell growth activity of the tests compounds on the KBA1 cells in the presence or absence (control wells) of Verapamil. The Dose Modification Ratio (DMR) is calculated from the KBA1 where for each test compound a ratio of the IC50 of the compound in the absence of Verapamil is divided by the IC50 of cell growth in the presence of Verapamil. […]
Background: In SRB staining, fixed cells bind dye roughly in proportion to their protein.

T2 sequence (P08183 whole entry): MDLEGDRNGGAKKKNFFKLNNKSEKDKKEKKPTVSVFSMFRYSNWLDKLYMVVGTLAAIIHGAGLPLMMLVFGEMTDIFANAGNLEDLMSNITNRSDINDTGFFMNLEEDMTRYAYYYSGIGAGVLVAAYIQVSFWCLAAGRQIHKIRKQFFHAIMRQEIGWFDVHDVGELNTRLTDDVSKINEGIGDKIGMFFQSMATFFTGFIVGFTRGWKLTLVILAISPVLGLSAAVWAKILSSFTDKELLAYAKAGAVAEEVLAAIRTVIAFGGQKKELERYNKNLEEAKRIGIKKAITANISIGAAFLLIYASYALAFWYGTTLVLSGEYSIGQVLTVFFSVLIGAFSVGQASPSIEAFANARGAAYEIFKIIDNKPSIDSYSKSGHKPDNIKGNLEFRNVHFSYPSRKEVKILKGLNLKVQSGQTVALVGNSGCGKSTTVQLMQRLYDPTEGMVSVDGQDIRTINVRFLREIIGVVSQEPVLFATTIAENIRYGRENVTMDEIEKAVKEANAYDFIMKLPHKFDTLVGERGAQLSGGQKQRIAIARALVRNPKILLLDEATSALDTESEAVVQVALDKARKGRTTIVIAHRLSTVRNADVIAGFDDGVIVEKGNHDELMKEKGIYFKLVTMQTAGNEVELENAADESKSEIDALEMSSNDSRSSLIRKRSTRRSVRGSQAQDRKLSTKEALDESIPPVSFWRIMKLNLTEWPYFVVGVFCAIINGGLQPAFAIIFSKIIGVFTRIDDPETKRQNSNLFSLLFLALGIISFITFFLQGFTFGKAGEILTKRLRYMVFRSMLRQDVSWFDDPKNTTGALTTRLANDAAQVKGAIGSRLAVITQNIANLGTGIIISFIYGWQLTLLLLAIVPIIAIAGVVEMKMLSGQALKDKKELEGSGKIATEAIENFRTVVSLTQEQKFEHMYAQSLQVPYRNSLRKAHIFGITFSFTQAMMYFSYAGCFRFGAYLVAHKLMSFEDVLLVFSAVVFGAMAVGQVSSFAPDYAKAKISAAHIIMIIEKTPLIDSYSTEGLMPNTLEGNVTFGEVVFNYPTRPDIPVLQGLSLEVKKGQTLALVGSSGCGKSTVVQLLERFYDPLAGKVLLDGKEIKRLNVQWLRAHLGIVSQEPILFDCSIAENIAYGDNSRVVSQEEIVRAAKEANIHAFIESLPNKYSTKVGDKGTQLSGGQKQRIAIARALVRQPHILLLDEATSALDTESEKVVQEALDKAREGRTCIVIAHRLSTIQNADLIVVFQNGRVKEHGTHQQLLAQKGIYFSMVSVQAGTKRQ
T1 sequence (P09874 whole entry): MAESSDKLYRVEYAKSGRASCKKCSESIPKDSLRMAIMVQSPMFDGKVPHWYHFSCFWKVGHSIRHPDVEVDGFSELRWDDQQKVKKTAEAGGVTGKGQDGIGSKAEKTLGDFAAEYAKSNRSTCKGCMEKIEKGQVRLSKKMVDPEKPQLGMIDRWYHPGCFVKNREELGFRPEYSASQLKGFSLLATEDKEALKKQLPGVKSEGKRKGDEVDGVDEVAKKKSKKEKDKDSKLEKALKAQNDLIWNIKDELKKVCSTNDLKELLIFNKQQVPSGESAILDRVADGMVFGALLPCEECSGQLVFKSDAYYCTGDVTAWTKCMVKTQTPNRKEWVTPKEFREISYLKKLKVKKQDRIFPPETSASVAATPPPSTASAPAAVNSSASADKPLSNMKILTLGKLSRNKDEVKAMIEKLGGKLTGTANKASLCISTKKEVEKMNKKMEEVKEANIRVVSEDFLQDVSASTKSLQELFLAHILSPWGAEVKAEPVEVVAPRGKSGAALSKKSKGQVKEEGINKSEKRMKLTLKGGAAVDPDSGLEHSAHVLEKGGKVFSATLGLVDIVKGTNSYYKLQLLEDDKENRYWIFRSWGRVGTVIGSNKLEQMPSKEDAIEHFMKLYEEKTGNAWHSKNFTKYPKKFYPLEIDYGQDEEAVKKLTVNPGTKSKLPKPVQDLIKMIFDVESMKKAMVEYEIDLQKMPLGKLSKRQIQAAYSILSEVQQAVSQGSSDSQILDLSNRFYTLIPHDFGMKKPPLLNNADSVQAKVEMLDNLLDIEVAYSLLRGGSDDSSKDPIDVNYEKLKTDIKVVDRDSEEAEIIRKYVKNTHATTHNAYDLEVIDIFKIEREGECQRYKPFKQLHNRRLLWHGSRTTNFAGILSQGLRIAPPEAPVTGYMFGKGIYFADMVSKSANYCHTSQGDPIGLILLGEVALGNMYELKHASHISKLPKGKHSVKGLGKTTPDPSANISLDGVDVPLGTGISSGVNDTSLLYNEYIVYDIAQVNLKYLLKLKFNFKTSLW

Turning to `COC1CCN(C(=O)c2cc(Cc3n[nH]c(=O)c4ccccc34)ccc2F)CC1` [Compound 1, 4-(4-Fluoro-3-(4-methoxypiperidine-1-carbonyl)benzyl)phthalazin-1(2H)-one], the IC50 (usually the point on the concentration scale where inhibition reaches its midpoint) in data set [1] was about 5 nM. For the same compound, the “PF50 at 30 nM” value with HeLa cells (test compound fixed at 30 nM) is 3.0. In addition, the “PF50 at 200 nM” value in the data set on HeLa cells (test compound fixed at 200 nM) is listed as 15. Further, the “Dose Modification Ratio (DMR)” value at P-glycoprotein came to 1.3.
